pIC50: −log10 of the molar value.
target: T1, sodium-proton exchanger of subtype 3 (NHE3) (Homo sapiens, UniProt P48764); experiment: Recovery of intracellular pH (pHi) after acidification in LAP1 cells stably expressing NHE3 (BCECF fluorescence, FLIPR); type: cell-based; conditions: Activity range (inhibitory effect on NHE3), LAP1 cells stably expressing NHE3; pH recovery after acidification; range 1 is % inhibition at 10 μM
T1 construct: expressed in transfected cells
T1 sequence (P48764 26-834): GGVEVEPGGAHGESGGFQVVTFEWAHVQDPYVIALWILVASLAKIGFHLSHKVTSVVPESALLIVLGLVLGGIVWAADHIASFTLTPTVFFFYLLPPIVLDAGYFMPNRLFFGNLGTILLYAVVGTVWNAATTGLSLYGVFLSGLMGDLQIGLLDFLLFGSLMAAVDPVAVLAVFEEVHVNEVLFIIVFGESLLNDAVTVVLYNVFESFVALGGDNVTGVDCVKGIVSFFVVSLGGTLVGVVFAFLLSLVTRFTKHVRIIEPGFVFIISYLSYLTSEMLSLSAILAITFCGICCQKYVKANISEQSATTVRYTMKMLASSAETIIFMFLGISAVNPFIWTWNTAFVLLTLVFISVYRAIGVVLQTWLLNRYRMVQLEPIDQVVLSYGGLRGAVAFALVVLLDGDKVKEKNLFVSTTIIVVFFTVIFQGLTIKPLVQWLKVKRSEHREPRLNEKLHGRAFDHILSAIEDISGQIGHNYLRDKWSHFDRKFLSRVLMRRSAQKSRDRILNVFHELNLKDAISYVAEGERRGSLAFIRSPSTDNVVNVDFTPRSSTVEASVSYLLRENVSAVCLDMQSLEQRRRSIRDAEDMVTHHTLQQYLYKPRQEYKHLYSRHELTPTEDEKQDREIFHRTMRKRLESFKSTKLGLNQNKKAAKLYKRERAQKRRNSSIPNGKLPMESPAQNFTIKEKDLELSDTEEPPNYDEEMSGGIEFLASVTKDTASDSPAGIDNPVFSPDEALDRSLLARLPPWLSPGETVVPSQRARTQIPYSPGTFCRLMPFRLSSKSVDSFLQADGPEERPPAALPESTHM

Q: With `CC(=O)Nc1cccc(O[C@H]2c3cc(Cl)cc(Cl)c3C[C@@H]2N2C[C@H]3CC[C@@H](C2)N3)c1` [Example 664, N-[3-(trans-(1S,2S)-4,6-dichloro-2-3,8-diazabicyclo[3.2.1]oct-3-ylindan-1-yloxy)phenyl]acetamide] as the molecule, how does the pIC50 read?
A: > 6.00

Q: `CCN(CC)C(=O)c1ccc(O[C@H]2c3ccccc3C[C@@H]2N2CCCC2)cc1` (racemic) [Example 633, N,N-diethyl-4-(rac-trans-(1,2)-2-pyrrolidin-1-ylindan-1-yloxy)benzamide] was tested. Which pIC50 did it give?
A: 5.00 to 6.00

Q: How did the pIC50 turn out when `Clc1cc(Cl)c2c(c1)[C@H](Oc1ccc(-n3cncn3)cc1)[C@@H](N1C[C@H]3CC[C@@H](C1)N3)C2` [Example 2, 3-[trans-(1S,2S)-4,6-dichloro-1-(4-[1,2,4]triazol-1-ylphenoxy)indan-2-yl]-3,8-diazabicyclo[3.2.1]octane] was run?
A: 5.00 to 6.00

same assay, conditions: LAP1 cells stably expressing NHE3; pH recovery after acidification; range 1 is % inhibition at 10 μM; read-out: Activity range (inhibitory effect on NHE3)

Q: `Cc1cn(-c2ccc(O[C@H]3c4cc(Cl)cc(Cl)c4C[C@@H]3N3CC[C@@H](O)C3)cc2)c(C(C)C)n1` [Example 714, (R)-1-{trans-(1S,2S)-4,6-Dichloro-1-[4-(2-isopropyl-4-methyl-imidazol-1-yl)-phenoxy]-indan-2-yl}-pyrrolidin-3-ol] was tested. Which pIC50 did it give?
A: 5.00 to 6.00

Q: With `NS(=O)(=O)c1ccc(OC2c3ccccc3CC2N2CC[C@@H](N3CCCC3)C2)cc1` (mixture of isomers) [Example 463, 4-(rac-trans-(1,2)-(R)-2-[1,3′]Bipyrrolidinyl-1′-ylindan-1-yloxy)benzenesulfonamide] as the molecule, how does the pIC50 read?
A: 5.00 to 6.00

Q: How did the pIC50 turn out when `Clc1cc(Cl)c2c(c1)[C@H](Oc1cccc(-n3cnnn3)c1)[C@@H](N1CCNCC1)C2` [Example 248, 1-[(1S,2S)-4,6-dichloro-1-(3-tetrazol-1-ylphenoxy)indan-2-yl]piperazine] was run?
A: > 6.00

Q: `NS(=O)(=O)c1ccc(O[C@H]2c3ccccc3C[C@@H]2N2CC[C@@H](CO)C2)cc1` (racemic) [Example 526, 4-[rac-trans-(1,2)-2-((R)-3-Hydroxymethylpyrrolidin-1-yl)indan-1-yloxy]benzenesulfonamide] was tested. Which pIC50 did it give?
A: 5.00 to 6.00

Q: With `CN(C)CCN(C)[C@H]1Cc2c(Cl)cc(Cl)cc2[C@@H]1Oc1ccc(S(C)(=O)=O)cc1` [Example 671, N-[trans-(1S,2S)-4,6-dichloro-1-(4-methanesulfonylphenoxy)indan-2-yl]-N,N′,N′-trimethyl-ethane-1,2-diamine] as the molecule, how does the pIC50 read?
A: > 6.00

Q: `Cc1c(Cl)ccc(O[C@@H]2c3ccccc3C[C@H]2N2C[C@H]3CNC[C@H]3C2)c1Cl` (racemic) [Example 4, 2-[rac-trans-(1,2)-1-(2,4-dichloro-3-methylphenoxy)indan-2-yl]octahydropyrrolo[3,4-c]pyrrole] was tested. Which pIC50 did it give?
A: 5.00 to 6.00

Q: `O=C1CCC(=O)N1c1ccc(O[C@H]2c3cc(Cl)cc(F)c3C[C@@H]2NC2CCCC2)c(F)c1` [Example 752, 1-[4-(trans-(1S,2S)-6-Chloro-2-cyclopentylamino-4-fluoro-indan-1-yloxy)-3-fluoro-phenyl]-pyrrolidine-2,5-dione] was tested. Which pIC50 did it give?
A: 5.00 to 6.00

Q: With `CC(=O)Nc1cccc(O[C@H]2c3cc(Cl)ccc3C[C@@H]2N2CCCC2)c1` (racemic) [Example 658, N-[3-(rac-trans-(1,2)-6-chloro-2-pyrrolidin-1-ylindan-1-yloxy)phenyl]acetamide] as the molecule, how does the pIC50 read?
A: > 6.00

Q: `CN(C)C(=O)Cc1ccc(O[C@H]2c3ccccc3C[C@@H]2N2CCCC2)cc1` (racemic) [Example 634, N,N-dimethyl-2-[4-(rac-trans-(1,2)-2-pyrrolidin-1-ylindan-1-yloxy)phenyl]acetamide] was tested. Which pIC50 did it give?
A: 5.00 to 6.00

Q: With `N#Cc1c(F)cccc1O[C@@H]1c2ccccc2C[C@H]1N1CCC(CN)C1` (mixture of isomers) [Example 374, 2-[rac-trans-(1,2)-2-(3-aminomethylpyrrolidin-1-yl)indan-1-yloxy]-6-fluorobenzonitrile] as the molecule, how does the pIC50 read?
A: 5.00 to 6.00

Q: With `N[C@@H]1CCCN([C@@H]2Cc3ccccc3[C@H]2Oc2ccc(Br)cc2-c2cc[nH]n2)C1` (racemic) [Example 118, (R)-1-{rac-trans-(1,2)-1-[4-bromo-2-(1H-pyrazol-3-yl)phenoxy]indan-2-yl}piperidin-3-ylamine] as the molecule, how does the pIC50 read?
A: 5.00 to 6.00

Q: With `CN(C)CCCN(C)[C@H]1Cc2c(Cl)cc(Cl)cc2[C@@H]1Oc1ccc(S(C)(=O)=O)cc1` [Example 672, N-[trans-(1S,2S)-4,6-dichloro-1-(4-methanesulfonylphenoxy)indan-2-yl]-N,N′,N′-trimethylpropane-1,3-diamine] as the molecule, how does the pIC50 read?
A: > 6.00

Q: How did the pIC50 turn out when `Cc1cn(-c2ccc(O[C@H]3c4cc(Cl)cc(F)c4C[C@@H]3N3CC[C@@H](O)C3)c(F)c2)c(C)n1` [Example 738, (R)-1-{trans-(1S,2S)-6-Chloro-1-[4-(2,4-dimethyl-imidazol-1-yl)-2-fluoro-phenoxy]-4-fluoro-indan-2-yl}-pyrrolidin-3-ol] was run?
A: > 6.00

Q: How did the pIC50 turn out when `NC(=O)Nc1cccc(O[C@@H]2c3ccccc3C[C@H]2N2CCC(N)C2)c1` (mixture of isomers) [Example 234, {3-[rac-trans-(1,2)-2-(3-aminopyrrolidin-1-yl)indan-1-yloxy]phenyl}urea] was run?
A: 5.00 to 6.00

Q: With `CCC(=O)c1cc(F)c(O[C@H]2c3ccccc3CC[C@@H]2N2CCC[C@H](N)C2)c(F)c1` (racemic) [Example 327, 1-{4-[rac-trans-(1,2)-2-((S)-3-aminopiperidin-1-yl)-1,2,3,4-tetrahydronaphthalen-1-yloxy]-3,5-difluorophenyl}propan-1-one] as the molecule, how does the inhibition at 10 µM read?
A: 20 to 50%

Q: With `CN1CCN(c2cccc(O[C@H]3c4cc(Cl)cc(F)c4C[C@@H]3N3CC[C@@H](O)C3)c2)C1=O` [Example 320, 1-{3-[trans-(1S,2S)-6-chloro-4-fluoro-2-((R)-3-hydroxypyrrolidin-1-yl)indan-1-yloxy]phenyl}-3-methylimidazolidin-2-one] as the molecule, how does the pIC50 read?
A: 5.00 to 6.00

Q: With `CC(=O)Nc1cccc(O[C@H]2c3cc(Cl)cc(Cl)c3C[C@@H]2N2CCNCC2)c1` [Example 665, N-[3-(trans-(1S,2S)-4,6-dichloro-2-piperazin-1-ylindan-1-yloxy)phenyl]acetamide] as the molecule, how does the pIC50 read?
A: > 6.00

Q: `c1ccc2c(c1)C[C@@H](N1C[C@H]3CNC[C@H]3C1)[C@@H]2Oc1ccc2cc[nH]c2c1` (racemic) [Example 587, 6-[rac-trans-(1,2)-2-(Hexahydropyrrolo[3,4-c]pyrrol-2-yl)indan-1-yloxy]-1H-indole] was tested. Which pIC50 did it give?
A: 5.00 to 6.00

Q: How did the pIC50 turn out when `O=C1CCCN1c1ccc(O[C@H]2c3cc(Cl)cc(Cl)c3C[C@@H]2N2CC[C@@H](O)C2)cc1` [Example 333, 1-{4-[trans-(1S,2S)-4,6-dichloro-2-((R)-3-hydroxypyrrolidin-1-yl)indan-1-yloxy]phenyl}pyrrolidin-2-one] was run?
A: > 6.00

Q: `Cc1cc(O[C@H]2c3ccccc3C[C@@H]2N2CCCC2)ccc1S(C)(=O)=O` (racemic) [Example 271, 1-[rac-trans-(1,2)-1-(4-methanesulfonyl-3-methylphenoxy)indan-2-yl]pyrrolidine] was tested. Which pIC50 did it give?
A: 5.00 to 6.00

Q: `N[C@H]1CCCN([C@@H]2Cc3ccccc3[C@H]2Oc2ccc(S(N)(=O)=O)c(Cl)c2Cl)C1` (racemic) [Example 536, 4-[rac-trans-(1,2)-2-((S)-3-aminopiperidin-1-yl)indan-1-yloxy]-2,3-dichlorobenzenesulfonamide] was tested. Which pIC50 did it give?
A: 5.00 to 6.00

Q: With `CCc1ccc(O[C@@H]2c3ccccc3C[C@H]2N2CCC[C@@H](N)C2)c(C(C)(C)C)c1` (racemic) [Example 49, (R)-1-[rac-trans-(1,2)-1-(2-tert-butyl-4-ethylphenoxy)indan-2-yl]piperidin-3-ylamine] as the molecule, how does the pIC50 read?
A: 5.00 to 6.00

Q: `CCOc1cccc(O[C@@H]2c3ccccc3C[C@H]2N2CCC(CN)CC2)c1` (racemic) [Example 614, C-{1-[rac-trans-(1,2)-1-(3-ethoxyphenoxy)indan-2-yl]piperidin-4-yl}methylamine] was tested. Which pIC50 did it give?
A: 5.00 to 6.00

Q: How did the pIC50 turn out when `Cc1c(O[C@H]2c3ccccc3C[C@@H]2N2CCCC2)ccc(-n2c(C)nnc2C)c1C` (racemic) [Example 488, 4-[2,3-dimethyl-4-(rac-trans-(1,2)-2-pyrrolidin-1-ylindan-1-yloxy)phenyl]-3,5-dimethyl-4H-[1,2,4]triazole] was run?
A: > 6.00

Q: `O=C1CCc2c(cccc2O[C@H]2c3cc(Cl)cc(Cl)c3C[C@@H]2N2CC[C@@H](O)C2)N1` [Example 574, 5-[(1S,2S)-4,6-dichloro-2-((R)-3-hydroxypyrrolidin-1-yl)indan-1-yloxy]-3,4-dihydro-1H-quinolin-2-one] was tested. Which pIC50 did it give?
A: 5.00 to 6.00

Q: `Cc1nnc(C)n1-c1ccc(O[C@H]2c3cc(Cl)ccc3C[C@@H]2N2CC[C@@H](F)C2)c(F)c1` [Example 563, 4-{4-[trans-(1S,2S)-6-chloro-2-((R)-3-fluoropyrrolidin-1-yl)indan-1-yloxy]-3-fluorophenyl}-3,5-dimethyl-4H-[1,2,4]triazole] was tested. Which pIC50 did it give?
A: > 6.00

Q: `COC(=O)c1nccn1-c1ccc(O[C@H]2c3cc(Cl)cc(Cl)c3C[C@@H]2N2CC[C@@H](O)C2)c(F)c1` [Example 740, 1-{4-[trans-(1S,2S)-4,6-Dichloro-2-((R)-3-hydroxy-pyrrolidin-1-yl)-indan-1-yloxy]-3-fluoro-phenyl}-1H-imidazole-2-carboxylic acid methyl ester] was tested. Which pIC50 did it give?
A: > 6.00
